# Results reported in US20250163057A1, “DCN-1 MODULATING COMPOUNDS AND METHODS OF USE THEREOF” (Cellarity, Inc., priority 2023, published 2025).
# Like-named read-outs stand apart in the source and are kept apart here.
# Assays:
# [1] = test system: Cullin-3 (CUL3) neddylation; experiment: AlphaLISA assay for Cullin-3 (CUL3) neddylation in TF 1 cells; type: cell-based; settings: Homo sapiens, TF-1, 3 h, 3 hours treatment
# Description: An AiphaLISA assay was performed to evaluate the ability of the compounds to suppress neddylation, which is downstream from DCN-1 and DCN-2. A stronger inhibition of DCN-1 and DCN-2 is expected to result in a suppression of neddylation as shown by a lower AlphaLISA signal. The AlphaLISA assay for detecting Cullin-3 (CUL3) neddylation was performed according to manufacturer instructions (Revvity, Hopkinton, MA). Briefly, TF 1 cells (ATCC) were plated in Iscove's Modified Dulbecco's Medium (IMIDM) without supplements in 384-well plates. These cells were treated with […] for 3 hours before lysing them with AlphaLISA lysis buffer, 5× (Revvity). To detect the level of CUL3 neddylation, biotinylated anti-NEDD8 antibody, was added followed by AlphaLISA Acceptor beads conjugated with anti-CUL3 antibody. After overnight incubation, Streptavidin-coated Alpha Donor beads were added and incubated for 1 hour. The AlphaLISA signal was then read on a VICTOR Nivo Multimode Microplate Reader (Revvity, Hopkinton, MA). The positive control was 1 μM DI-1548, which is reported to reduce CUL3 neddylation, also referred to as C-1 in Example 41 (Zhou et al. Nature Comm. 2021). The neddylation signal was normalized such that the percent inhibition is 0% for vehicle control and 100% for positive control. The dose-response curves were fitted with the Hill equation to obtain IC50 values (Graphpad Prism).
# [2] = target: DCN1 (DCUND1) protein PONY domain (Homo sapiens (Human), UniProt Q96GG9); experiment: TR-FRET assay, DCN1 binding with FAM-labeled probe
# Sequence of DCN1 (DCUND1) protein PONY domain (Q96GG9 60-248): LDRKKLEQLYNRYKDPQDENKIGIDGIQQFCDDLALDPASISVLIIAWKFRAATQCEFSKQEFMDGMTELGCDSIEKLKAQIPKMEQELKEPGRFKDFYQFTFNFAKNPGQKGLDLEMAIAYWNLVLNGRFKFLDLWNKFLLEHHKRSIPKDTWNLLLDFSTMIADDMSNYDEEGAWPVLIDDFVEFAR
# In short: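 Tb-DCN1 PONY domain (E. coli, biotin/streptavidin-Tb); FAM-labelled non-covalent inhibitor probe; TritonX buffer, 200 mM NaCl; 5 nM DCN1 + 20 nM probe or 0.31 nM DCN1 + 900 nM total probe; 0.1% DMSO; TR-FRET read 1, 5, 24 hrs.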
# [3] = 24 hr after treatment with compound, read-out: TR FRET IC50 24 hr
# [4] = TR FRET IC50 1 hr (nM), 1 hr after treatment with compound
# [5] = read-out: TR FRET IC50 1 hr, 1 hr after treatment with compound
smiles,measurement,setting,value
CCN1C(=O)[C@@H](NC(=O)c2cccc(C(F)(F)F)c2)[C@@H](c2ccc(F)cn2)c2c(C(=O)N3CCC[C@H]3C#N)nn(-c3ccccc3)c21 (mixture of isomers) [Compound I-409],IC50,[1],100 to 1000 nM
same,IC50,[2]; [3],≤ 200 nM
same,IC50,[2]; [4],1000 to 3000 nM
CCN1C(=O)[C@@H](NC(=O)c2cccc(C(F)(F)F)c2)[C@@H](c2ccccn2)c2c(C(=O)N3CCC[C@H]3C#N)nn(-c3ccccc3)c21 (mixture of isomers) [Compound I-413],IC50,[1],≤ 100 nM
same,IC50,[2]; [3],≤ 200 nM
same,IC50,[2]; [4],1000 to 3000 nM
CCN1C(=O)[C@H](NC(=O)c2cccc(C(F)(F)F)c2)[C@H](C2CC2)c2c(C(=O)N(C)C(C)C#N)nn(C3CCOCC3)c21 (mixture of isomers) [Compound I-415],IC50,[1],> 1000 nM
same,IC50,[2]; [3],1000 to 3000 nM
same,IC50,[2]; [4],1000 to 3000 nM
"CCN1C(=O)[C@@H](NC(=O)c2cccc(C(F)(F)F)c2)[C@@H](c2ccc(F)cc2)c2c(C(=O)N3C[C@H](NC)C[C@H]3C#N)nn(C3CCOCC3)c21 (mixture of isomers) [Compound I-509, N-((4S,5S)-3-((2S,4R)-2-cyano-4-(methylamino)pyrrolidine-1-carbonyl)-7-ethyl-4-(4-fluorophenyl)-6-oxo-1-(tetrahydro-2H-pyran-4-yl)-4,5,6,7-tetrahydro-1H-pyrazolo[3,4-b]pyridin-5-yl)-3-(trifluoromethyl)benzamide]",IC50,[1],≤ 100 nM
same,IC50,[2]; [3],≤ 200 nM
same,IC50,[2]; [5],≤ 200 nM
CCN1C(=O)[C@@H](NC(=O)c2cccc(C(F)(F)F)c2)[C@@H](C2CC2)c2c(C(=O)N3[C@H](C#N)C[C@H]4C[C@H]43)nn(C(C)(C)C)c21 (mixture of isomers) [Compound I-517],IC50,[1],100 to 1000 nM
same,IC50,[2]; [3],200 to 1000 nM
same,IC50,[2]; [4],1000 to 3000 nM
CCN1C(=O)[C@@H](NC(=O)c2cccc(C(F)(F)F)c2)[C@@H](C2CC2)c2c(C(=O)N(C)C(C)C#N)nn(-c3ccccc3)c21 (mixture of isomers) [Compound I-543],IC50,[1],100 to 1000 nM
same,IC50,[2]; [3],≤ 200 nM
same,IC50,[2]; [5],≤ 200 nM
"CCN1C(=O)[C@@H](NC(=O)c2cccc(C(F)(F)F)c2)[C@@H](c2ccc(F)cc2)c2c([C@@H](CCO)NC#N)nn(-c3ccccc3)c21 (mixture of isomers) [Compound I-567, N-(rac-(4S,5S)-3-((R)-1-cyanamido-3-hydroxypropyl)-7-ethyl-4-(4-fluorophenyl)-6-oxo-1-phenyl-4,5,6,7-tetrahydro-1H-pyrazolo[3,4-b]pyridin-5-yl)-3-(trifluoromethyl)benzamide]",IC50,[1],> 1000 nM
same,IC50,[2]; [3],1000 to 3000 nM
same,IC50,[2]; [4],1000 to 3000 nM
CCN1C(=O)[C@@H](NC(=O)c2cccc(C(F)(F)F)c2)[C@@H](c2ccc(F)nc2)c2c(C(=O)N3CCC[C@H]3C#N)nn(C3CC3)c21 (mixture of isomers) [Compound I-585],IC50,[1],100 to 1000 nM
same,IC50,[2]; [3],≤ 200 nM
same,IC50,[2]; [4],1000 to 3000 nM
CCN1C(=O)[C@@H](NC(=O)c2cccc(C(F)(F)F)c2)[C@@H](c2ccc(F)cc2)c2c([C@@H](CN(C)C)NC(N)=O)nn(-c3ccccc3)c21 (mixture of isomers) [Compound I-673],IC50,[1],> 1000 nM
same,IC50,[2]; [3],200 to 1000 nM
same,IC50,[2]; [4],200 to 1000 nM
"CCN1C(=O)[C@@H](NC(=O)c2cccc(C(F)(F)F)c2)[C@@H](c2ccc(F)cc2)c2c(C(=O)N(C)[C@H](C#N)CCN(C)C)nn(-c3ccccc3)c21 (single isomer, unassigned) [Compound I-303, (4S,5S)—N-[(1S*)-1-cyano-3-(dimethylamino)propyl]-7-ethyl-4-(4-fluorophenyl)-N-methyl-6-oxo-1-phenyl-5-[3-(trifluoromethyl)benzamido]-4H,5H-pyrazolo[3,4-b]pyridine-3-carboxamide]",IC50,[1],≤ 100 nM
CCN1C(=O)[C@@H](NC(=O)C2CCOc3ccccc32)[C@@H](C2CC2)c2c(C(=O)N3[C@H](C#N)C[C@H]4C[C@H]43)nn(C3CCOCC3)c21 (stereo partly drawn) [Compound I-598],IC50,[2]; [3],1000 to 3000 nM
same,IC50,[2]; [4],1000 to 3000 nM
CCN1C(=O)[C@@H](NC(=O)CC2CC(=O)c3ccc(OC)cc32)[C@@H](C2CC2)c2c(C(=O)N3[C@H](C#N)C[C@H]4C[C@H]43)nn(C3CCOCC3)c21 (stereo partly drawn) [Compound I-618],IC50,[2]; [3],1000 to 3000 nM
same,IC50,[2]; [4],1000 to 3000 nM
CCOc1ccc(C)c(C(=O)N[C@@H]2C(=O)N(CC)c3c(c(C(=O)N4[C@H](C#N)C[C@H]5C[C@H]54)nn3C3CCOCC3)[C@@H]2C2CC2)c1 [Compound I-620],IC50,[2]; [3],≤ 200 nM
same,IC50,[2]; [5],≤ 200 nM
CCN1C(=O)[C@@H](NC(=O)c2cc(F)ccc2C(F)(F)F)[C@@H](C2CC2)c2c(C(=O)N3[C@H](C#N)C[C@H]4C[C@H]43)nn(C3CCOCC3)c21 [Compound I-623],IC50,[2]; [3],1000 to 3000 nM
same,IC50,[2]; [4],1000 to 3000 nM
CCN1C(=O)[C@@H](NC(=O)c2ccc(C)c(C(F)(F)F)c2)[C@@H](C2CC2)c2c(C(=O)N3[C@H](C#N)C[C@H]4C[C@H]43)nn(C3CCOCC3)c21 [Compound I-627],IC50,[2]; [3],≤ 200 nM
same,IC50,[2]; [5],≤ 200 nM
CCN1C(=O)[C@@H](NC(=O)C2CCC(F)(F)CC2)[C@@H](C2CC2)c2c(C(=O)N3[C@H](C#N)C[C@H]4C[C@H]43)nn(C3CCOCC3)c21 [Compound I-652],IC50,[2]; [3],1000 to 3000 nM
same,IC50,[2]; [4],1000 to 3000 nM
CCN1C(=O)[C@@H](NC(=O)c2ccc(C3CCN(C)CC3)cc2)[C@@H](C2CC2)c2c(C(=O)N3[C@H](C#N)C[C@H]4C[C@H]43)nn(C3CCOCC3)c21 [Compound I-653],IC50,[2]; [3],1000 to 3000 nM
same,IC50,[2]; [4],1000 to 3000 nM
CCN1C(=O)[C@@H](NC(=O)C2CC(C)C2)[C@@H](C2CC2)c2c(C(=O)N3[C@H](C#N)C[C@H]4C[C@H]43)nn(C3CCOCC3)c21 (stereo partly drawn) [Compound I-655],IC50,[2]; [3],1000 to 3000 nM
same,IC50,[2]; [4],1000 to 3000 nM
CCN1C(=O)[C@@H](NC(=O)CC2CCCc3ccccc32)[C@@H](C2CC2)c2c(C(=O)N3[C@H](C#N)C[C@H]4C[C@H]43)nn(C3CCOCC3)c21 (stereo partly drawn) [Compound I-663],IC50,[2]; [3],1000 to 3000 nM
same,IC50,[2]; [4],1000 to 3000 nM
CCN1C(=O)[C@@H](NC(=O)c2ccn(C(C)(C)C)n2)[C@@H](C2CC2)c2c(C(=O)N3[C@H](C#N)C[C@H]4C[C@H]43)nn(C3CCOCC3)c21 [Compound I-688],IC50,[2]; [3],≤ 200 nM
same,IC50,[2]; [4],200 to 1000 nM
CCN1C(=O)[C@@H](NC(=O)c2cccc(F)c2)[C@@H](C2CC2)c2c(C(=O)N3[C@H](C#N)C[C@H]4C[C@H]43)nn(C3CCOCC3)c21 [Compound I-690],IC50,[2]; [3],≤ 200 nM
same,IC50,[2]; [4],200 to 1000 nM
CCN1C(=O)[C@@H](NC(=O)c2cc(C)n(C(C)(C)C)n2)[C@@H](C2CC2)c2c(C(=O)N3[C@H](C#N)C[C@H]4C[C@H]43)nn(C3CCOCC3)c21 [Compound I-691],IC50,[2]; [3],≤ 200 nM
same,IC50,[2]; [4],1000 to 3000 nM
CCN1C(=O)[C@@H](NC(=O)c2ccc3c(c2)OCCO3)[C@@H](C2CC2)c2c(C(=O)N3[C@H](C#N)C[C@H]4C[C@H]43)nn(C3CCOCC3)c21 [Compound I-695],IC50,[2]; [3],1000 to 3000 nM
same,IC50,[2]; [4],1000 to 3000 nM
CCC(=O)N[C@@H]1C(=O)N(CC)c2c(c(C(=O)N3[C@H](C#N)C[C@H]4C[C@H]43)nn2C2CCOCC2)[C@@H]1C1CC1 [Compound I-696],IC50,[2]; [3],1000 to 3000 nM
same,IC50,[2]; [4],1000 to 3000 nM
CCN1C(=O)[C@@H](NC(=O)c2cccc(C#N)c2)[C@@H](C2CC2)c2c(C(=O)N3[C@H](C#N)C[C@H]4C[C@H]43)nn(C3CCOCC3)c21 [Compound I-698],IC50,[2]; [3],200 to 1000 nM
same,IC50,[2]; [4],200 to 1000 nM
CCN1C(=O)[C@@H](NC(=O)C23CC(C(F)(F)F)(C2)C3)[C@@H](C2CC2)c2c(C(=O)N3[C@H](C#N)C[C@H]4C[C@H]43)nn(C3CCOCC3)c21 [Compound I-701],IC50,[2]; [3],1000 to 3000 nM
same,IC50,[2]; [4],1000 to 3000 nM
